This note sets out measurements from ChEMBL document CHEMBL4417633, “Inhibitory polypeptides specific to WNT inhibitors” (2017).

The target of test [1] is T1, Dickkopf-related protein 1 (Homo sapiens, UniProt O94907).
T1 sequence (O94907 whole entry): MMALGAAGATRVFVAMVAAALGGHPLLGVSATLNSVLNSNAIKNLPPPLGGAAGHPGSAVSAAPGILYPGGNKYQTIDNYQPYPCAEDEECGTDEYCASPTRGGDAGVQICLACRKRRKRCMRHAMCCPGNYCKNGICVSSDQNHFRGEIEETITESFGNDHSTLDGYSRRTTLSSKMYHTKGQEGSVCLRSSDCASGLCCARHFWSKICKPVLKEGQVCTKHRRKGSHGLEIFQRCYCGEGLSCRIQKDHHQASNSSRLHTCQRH
Nature of the test: Inhibition of biotin-labeled human recombinant DKK1 assessed as reduction in DKK1 interaction with LRP-6/Fc incubated overnight by chemiluminescence based Alpha-screen assay. On the technique in general: In Alpha technology, singlet oxygen from a donor bead excites a nearby acceptor bead.

Test [2] has as its target T2, Dickkopf WNT-signaling pathway inhibitor 1 (Rattus norvegicus, UniProt A6I0Z0).
T2 sequence (A6I0Z0 whole entry): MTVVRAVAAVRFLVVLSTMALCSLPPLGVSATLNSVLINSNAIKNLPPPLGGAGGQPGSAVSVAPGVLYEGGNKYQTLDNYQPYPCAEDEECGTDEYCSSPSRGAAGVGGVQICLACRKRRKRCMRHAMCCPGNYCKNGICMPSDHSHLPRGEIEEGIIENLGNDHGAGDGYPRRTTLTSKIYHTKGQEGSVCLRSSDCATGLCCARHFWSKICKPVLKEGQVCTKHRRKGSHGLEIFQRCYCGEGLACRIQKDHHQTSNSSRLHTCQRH
Nature of the test: Inhibition of biotin-labeled rat recombinant DKK1 assessed as reduction in DKK1 interaction with LRP-6/Fc incubated overnight by chemiluminescence based Alpha-screen assay.

Structures are written as SMILES. Where a SMILES comes first, the peptide text is derived from it.

One may read the IC50 as the concentration that gives 50% inhibition.

In the case of `CSCC[C@H](NC(=O)[C@@H]1CCCN1C(=O)[C@H](Cc1ccc(O)cc1)NC(=O)[C@H](CS)NC(=O)[C@H](Cc1cnc[nH]1)NC(=O)[C@@H]1CCCN1C(=O)[C@H](Cc1cnc[nH]1)NC(=O)[C@H](CCCCN)NC(=O)[C@H](CC(C)C)NC(=O)[C@H](CS)NC(=O)[C@H](CCC(N)=O)NC(=O)[C@H](Cc1ccccc1)NC(=O)[C@H](Cc1ccc(O)cc1)NC(=O)[C@H](CO)NC(=O)[C@H](C)NC(=O)[C@@H]1CCCN1C(=O)[C@@H](N)CS)C(=O)N[C@@H](CCC(=O)O)C(=O)N[C@@H](Cc1c[nH]c2ccccc12)C(=O)N[C@@H](CCCNC(=N)N)C(=O)N[C@@H](CS)C(=O)N[C@@H](CC(=O)O)C(=O)NCC(=O)N[C@@H](Cc1ccccc1)C(=O)N[C@@H](CC(=O)O)C(=O)N[C@@H](CC(=O)O)C(=O)N[C@@H](CS)C(=O)N[C@@H](CCC(=O)O)C(=O)N[C@@H](CC(=O)O)C(=O)NCC(=O)N[C@@H](CO)C(=O)N[C@@H](CC(=O)O)C(=O)N[C@@H](CCC(=O)O)C(=O)N[C@H](C(=O)NCC(=O)N[C@@H](CS)C(=O)N1CCC[C@H]1C(=O)N[C@@H](Cc1ccc(O)cc1)C(=O)N[C@@H](CCCNC(=N)N)C(=O)N[C@H](C(=O)O)[C@@H](C)O)[C@@H](C)O` (H-CPASYFQCLKHPHCYPMEWRCDGFDDCEDGSDETGCPYRT-OH), the IC50 in test [1] and in test [2] was no more than 1 nM each time.

On to `CSCC[C@H](NC(=O)[C@H](Cc1ccccc1)NC(=O)[C@H](CCC(=O)O)NC(=O)[C@H](Cc1ccc(O)cc1)NC(=O)[C@H](CO)NC(=O)[C@@H]1CCCN1C(=O)[C@@H](N)CS)C(=O)N[C@@H](CS)C(=O)N[C@@H](C)C(=O)N[C@@H](CC(=O)O)C(=O)N[C@@H](CCCCN)C(=O)N[C@@H](CCSC)C(=O)N[C@@H](CS)C(=O)N[C@@H](Cc1ccccc1)C(=O)N1CCC[C@H]1C(=O)N[C@@H](CC(C)C)C(=O)N[C@@H](CC(=O)O)C(=O)N[C@@H](Cc1ccccc1)C(=O)N[C@@H](CC(C)C)C(=O)N[C@@H](CS)C(=O)N[C@@H](CC(=O)O)C(=O)NCC(=O)N[C@@H](CCC(=O)O)C(=O)N[C@@H](CC(N)=O)C(=O)N[C@@H](CC(=O)O)C(=O)N[C@@H](CS)C(=O)N[C@@H](CCC(=O)O)C(=O)N[C@@H](CC(=O)O)C(=O)NCC(=O)N[C@@H](CO)C(=O)N[C@@H](CC(=O)O)C(=O)N[C@@H](CCC(=O)O)C(=O)N[C@@H](CC(=O)O)C(=O)N[C@@H](Cc1ccc(O)cc1)C(=O)N[C@@H](CS)C(=O)N1CCC[C@H]1C(=O)N[C@@H](CO)C(=O)N[C@@H](CCCNC(=N)N)C(=O)N[C@H](C(=O)O)[C@@H](C)O` (H-CPSYEFMCADKMCFPLDFLCDGENDCEDGSDEDYCPSRT-OH), for which the IC50 in test [1] and in test [2] was no more than 1 nM each time.

Take `CSCC[C@H](NC(=O)[C@@H]1CCCN1C(=O)[C@H](Cc1ccc(O)cc1)NC(=O)[C@H](CS)NC(=O)[C@H](Cc1cnc[nH]1)NC(=O)[C@H](CC(N)=O)NC(=O)[C@H](Cc1cnc[nH]1)NC(=O)[C@H](Cc1ccc(O)cc1)NC(=O)[C@H](CCCNC(=N)N)NC(=O)[C@H](CS)NC(=O)[C@H](CCC(N)=O)NC(=O)[C@H](Cc1ccccc1)NC(=O)[C@H](Cc1ccc(O)cc1)NC(=O)[C@H](CO)NC(=O)[C@@H](NC(=O)[C@@H]1CCCN1C(=O)[C@@H](N)CS)C(C)C)C(=O)N[C@@H](CCC(=O)O)C(=O)N[C@@H](Cc1c[nH]c2ccccc12)C(=O)N[C@@H](CCCNC(=N)N)C(=O)N[C@@H](CS)C(=O)N[C@@H](CC(=O)O)C(=O)NCC(=O)N[C@@H](Cc1ccccc1)C(=O)N1CCC[C@H]1C(=O)N[C@@H](CC(=O)O)C(=O)N[C@@H](CS)C(=O)N[C@@H](CCC(=O)O)C(=O)N[C@@H](CC(=O)O)C(=O)N[C@@H](C)C(=O)N[C@@H](CO)C(=O)N[C@@H](CC(=O)O)C(=O)N[C@@H](CCC(=O)O)C(=O)N[C@@H](CCC(=O)O)C(=O)NCC(=O)N[C@@H](CS)C(=O)N1CCC[C@H]1C(=O)N[C@@H](Cc1ccc(O)cc1)C(=O)N[C@@H](CCCNC(=N)N)C(=O)N[C@H](C(=O)O)[C@@H](C)O` (H-CPVSYFQCRYHNHCYPMEWRCDGFPDCEDASDEEGCPYRT-OH): the half-maximal inhibitory concentration (IC50) in test [1] and in test [2] was no more than 1 nM each time.

On to `CSCC[C@H](NC(=O)[C@@H]1CCCN1C(=O)[C@H](Cc1ccc(O)cc1)NC(=O)[C@H](CS)NC(=O)[C@H](Cc1cnc[nH]1)NC(=O)[C@H](CC(N)=O)NC(=O)[C@H](CCCNC(=N)N)NC(=O)[C@H](Cc1cnc[nH]1)NC(=O)[C@H](CCCNC(=N)N)NC(=O)[C@H](CS)NC(=O)[C@H](CCCCN)NC(=O)[C@H](Cc1ccccc1)NC(=O)[C@H](Cc1ccc(O)cc1)NC(=O)[C@H](CO)NC(=O)[C@@H](NC(=O)[C@@H]1CCCN1C(=O)[C@@H](N)CS)C(C)C)C(=O)N[C@@H](CCC(=O)O)C(=O)N[C@@H](Cc1c[nH]c2ccccc12)C(=O)N[C@@H](CCCNC(=N)N)C(=O)N[C@@H](CS)C(=O)N[C@@H](CC(=O)O)C(=O)NCC(=O)N[C@@H](Cc1ccccc1)C(=O)N1CCC[C@H]1C(=O)N[C@@H](CC(=O)O)C(=O)N[C@@H](CS)C(=O)N[C@@H](CC(=O)O)C(=O)N[C@@H](CC(=O)O)C(=O)NCC(=O)N[C@@H](CO)C(=O)N[C@@H](CC(=O)O)C(=O)N[C@@H](CCC(=O)O)C(=O)N[C@@H](CCCNC(=N)N)C(=O)NCC(=O)N[C@@H](CS)C(=O)N1CCC[C@H]1C(=O)N[C@@H](Cc1ccc(O)cc1)C(=O)N[C@@H](CCCNC(=N)N)C(=O)N[C@H](C(=O)O)[C@@H](C)O` (H-CPVSYFKCRHRNHCYPMEWRCDGFPDCDDGSDERGCPYRT-OH), for which the IC50 in test [1] and in test [2] was no more than 1 nM each time.

On to `CSCC[C@H](NC(=O)[C@@H]1CCCN1C(=O)[C@H](Cc1ccc(O)cc1)NC(=O)[C@H](CS)NC(=O)[C@H](Cc1cnc[nH]1)NC(=O)[C@H](CCCCN)NC(=O)[C@H](Cc1ccccc1)NC(=O)[C@H](CC(N)=O)NC(=O)[C@H](Cc1c[nH]c2ccccc12)NC(=O)[C@H](CS)NC(=O)[C@H](CCC(N)=O)NC(=O)[C@H](Cc1ccccc1)NC(=O)[C@H](Cc1ccc(O)cc1)NC(=O)[C@H](CO)NC(=O)[C@H](C)NC(=O)[C@@H]1CCCN1C(=O)[C@@H](N)CS)C(=O)N[C@@H](CCC(=O)O)C(=O)N[C@@H](Cc1c[nH]c2ccccc12)C(=O)N[C@@H](CCCNC(=N)N)C(=O)N[C@@H](CS)C(=O)N[C@@H](CC(=O)O)C(=O)NCC(=O)N[C@@H](Cc1ccccc1)C(=O)N[C@@H](CC(N)=O)C(=O)N[C@@H](CC(=O)O)C(=O)N[C@@H](CS)C(=O)N[C@H](C(=O)N[C@@H](CC(=O)O)C(=O)NCC(=O)N[C@@H](CO)C(=O)N[C@@H](CC(=O)O)C(=O)N[C@@H](CCC(=O)O)C(=O)N[C@@H](CCCCN)C(=O)NCC(=O)N[C@@H](CS)C(=O)N1CCC[C@H]1C(=O)N[C@@H](Cc1ccc(O)cc1)C(=O)N[C@@H](CCCNC(=N)N)C(=O)N[C@H](C(=O)O)[C@@H](C)O)C(C)C` (H-CPASYFQCWNFKHCYPMEWRCDGFNDCVDGSDEKGCPYRT-OH), for which the IC50 in test [1] and in test [2] was no more than 1 nM in each case.

Take `CC[C@H](C)[C@H](NC(=O)[C@H](CCC(=O)O)NC(=O)[C@H](CC(=O)O)NC(=O)[C@H](CO)NC(=O)CNC(=O)[C@H](CC(=O)O)NC(=O)[C@@H](NC(=O)[C@H](CS)NC(=O)[C@H](CC(=O)O)NC(=O)[C@H](Cc1cnc[nH]1)NC(=O)[C@H](Cc1ccccc1)NC(=O)CNC(=O)[C@H](CC(=O)O)NC(=O)[C@H](CS)NC(=O)[C@H](CCCNC(=N)N)NC(=O)[C@H](Cc1c[nH]c2ccccc12)NC(=O)[C@H](CCC(=O)O)NC(=O)[C@H](CCSC)NC(=O)[C@@H]1CCCN1C(=O)[C@H](Cc1ccc(O)cc1)NC(=O)[C@H](CS)NC(=O)[C@H](Cc1cnc[nH]1)NC(=O)[C@H](CC(N)=O)NC(=O)[C@H](Cc1cnc[nH]1)NC(=O)[C@H](Cc1cnc[nH]1)NC(=O)[C@H](CCCNC(=N)N)NC(=O)[C@H](CS)NC(=O)[C@H](CCC(N)=O)NC(=O)[C@H](Cc1ccccc1)NC(=O)[C@H](Cc1ccc(O)cc1)NC(=O)[C@H](CO)NC(=O)[C@H](C)NC(=O)[C@@H]1CCCN1C(=O)[C@@H](N)CS)C(C)C)C(=O)NCC(=O)N[C@@H](CS)C(=O)N1CCC[C@H]1C(=O)N[C@@H](Cc1ccc(O)cc1)C(=O)N[C@@H](CCCNC(=N)N)C(=O)N[C@H](C(=O)O)[C@@H](C)O` (H-CPASYFQCRHHNHCYPMEWRCDGFHDCVDGSDEIGCPYRT-OH): the IC50 in test [1] and in test [2] was no more than 1 nM throughout.

As for `CSCC[C@H](NC(=O)[C@H](CS)NC(=O)[C@H](CCC(N)=O)NC(=O)[C@H](Cc1ccccc1)NC(=O)[C@H](Cc1ccc(O)cc1)NC(=O)[C@H](CO)NC(=O)[C@H](C)NC(=O)[C@@H]1CCCN1C(=O)[C@@H](N)CS)C(=O)N[C@@H](CC(N)=O)C(=O)N[C@@H](Cc1cnc[nH]1)C(=O)N[C@@H](CC(N)=O)C(=O)N[C@@H](Cc1cnc[nH]1)C(=O)N[C@@H](CS)C(=O)N[C@@H](Cc1ccc(O)cc1)C(=O)N1CCC[C@H]1C(=O)N[C@@H](CCSC)C(=O)N[C@@H](CCC(=O)O)C(=O)N[C@@H](Cc1c[nH]c2ccccc12)C(=O)N[C@@H](CCCNC(=N)N)C(=O)N[C@@H](CS)C(=O)N[C@@H](CC(=O)O)C(=O)NCC(=O)N[C@@H](Cc1ccccc1)C(=O)N1CCC[C@H]1C(=O)N[C@@H](CC(=O)O)C(=O)N[C@@H](CS)C(=O)N[C@@H](CCC(=O)O)C(=O)N[C@@H](CC(=O)O)C(=O)NCC(=O)N[C@@H](CO)C(=O)N[C@@H](CC(=O)O)C(=O)N[C@@H](CCC(=O)O)C(=O)N[C@@H](CCCCN)C(=O)NCC(=O)N[C@@H](CS)C(=O)N1CCC[C@H]1C(=O)N[C@@H](Cc1ccc(O)cc1)C(=O)N[C@@H](CCCNC(=N)N)C(=O)N[C@H](C(=O)O)[C@@H](C)O` (H-CPASYFQCMNHNHCYPMEWRCDGFPDCEDGSDEKGCPYRT-OH), the concentration for half-maximal inhibition (IC50) in test [1] and in test [2] was no more than 1 nM in each case.
